Reference: US20020172670A1 (priority 2000, published 2002)

Key:
dGMII [1] = molecular target: T1, dGMII (Drosophila melanogaster, UniProt Q24451); settings: cited from earlier work
T1 construct: The resulting constructs consist of the dGMII catalytic region with a short length of the stalk region; Bip secretion signal (N); made in house; host or cells: Drosophila Schneider S2 cells, stably transfected, protein secreted into the medium
T1 sequence (Q24451 76-1108): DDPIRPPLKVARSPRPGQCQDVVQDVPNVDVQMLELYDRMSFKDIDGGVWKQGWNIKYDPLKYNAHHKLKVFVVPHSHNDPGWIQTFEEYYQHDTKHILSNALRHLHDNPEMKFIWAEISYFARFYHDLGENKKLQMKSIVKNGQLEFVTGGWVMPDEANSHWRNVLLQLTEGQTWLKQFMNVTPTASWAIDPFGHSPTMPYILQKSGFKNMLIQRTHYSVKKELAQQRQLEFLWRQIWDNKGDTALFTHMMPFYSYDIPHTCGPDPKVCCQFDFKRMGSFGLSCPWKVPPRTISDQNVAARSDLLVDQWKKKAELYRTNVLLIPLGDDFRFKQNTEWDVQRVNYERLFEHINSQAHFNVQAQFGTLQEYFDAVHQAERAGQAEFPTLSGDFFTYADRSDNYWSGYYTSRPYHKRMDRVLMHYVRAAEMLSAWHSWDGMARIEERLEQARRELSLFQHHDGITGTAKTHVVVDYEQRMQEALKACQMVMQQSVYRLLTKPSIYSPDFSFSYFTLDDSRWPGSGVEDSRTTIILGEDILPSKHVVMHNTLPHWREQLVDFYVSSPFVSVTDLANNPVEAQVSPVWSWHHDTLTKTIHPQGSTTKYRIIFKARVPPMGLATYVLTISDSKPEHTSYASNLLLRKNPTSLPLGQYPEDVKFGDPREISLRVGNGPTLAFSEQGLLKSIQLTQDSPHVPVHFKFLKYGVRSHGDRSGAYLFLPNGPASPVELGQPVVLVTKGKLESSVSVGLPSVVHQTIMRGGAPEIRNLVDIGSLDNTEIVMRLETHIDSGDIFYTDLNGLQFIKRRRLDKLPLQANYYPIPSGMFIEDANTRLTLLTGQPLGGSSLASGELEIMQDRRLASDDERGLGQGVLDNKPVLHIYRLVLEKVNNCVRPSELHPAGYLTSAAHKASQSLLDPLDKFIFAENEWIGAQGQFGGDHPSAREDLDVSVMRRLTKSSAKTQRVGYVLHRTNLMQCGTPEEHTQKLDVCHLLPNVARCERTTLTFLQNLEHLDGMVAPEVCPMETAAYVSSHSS

mouse GMII = molecular target: T2, mouse GMII (Mus musculus, UniProt P27046); settings: Rabouille et al., 1999; cited from earlier work
T2 sequence (P27046 1-1150): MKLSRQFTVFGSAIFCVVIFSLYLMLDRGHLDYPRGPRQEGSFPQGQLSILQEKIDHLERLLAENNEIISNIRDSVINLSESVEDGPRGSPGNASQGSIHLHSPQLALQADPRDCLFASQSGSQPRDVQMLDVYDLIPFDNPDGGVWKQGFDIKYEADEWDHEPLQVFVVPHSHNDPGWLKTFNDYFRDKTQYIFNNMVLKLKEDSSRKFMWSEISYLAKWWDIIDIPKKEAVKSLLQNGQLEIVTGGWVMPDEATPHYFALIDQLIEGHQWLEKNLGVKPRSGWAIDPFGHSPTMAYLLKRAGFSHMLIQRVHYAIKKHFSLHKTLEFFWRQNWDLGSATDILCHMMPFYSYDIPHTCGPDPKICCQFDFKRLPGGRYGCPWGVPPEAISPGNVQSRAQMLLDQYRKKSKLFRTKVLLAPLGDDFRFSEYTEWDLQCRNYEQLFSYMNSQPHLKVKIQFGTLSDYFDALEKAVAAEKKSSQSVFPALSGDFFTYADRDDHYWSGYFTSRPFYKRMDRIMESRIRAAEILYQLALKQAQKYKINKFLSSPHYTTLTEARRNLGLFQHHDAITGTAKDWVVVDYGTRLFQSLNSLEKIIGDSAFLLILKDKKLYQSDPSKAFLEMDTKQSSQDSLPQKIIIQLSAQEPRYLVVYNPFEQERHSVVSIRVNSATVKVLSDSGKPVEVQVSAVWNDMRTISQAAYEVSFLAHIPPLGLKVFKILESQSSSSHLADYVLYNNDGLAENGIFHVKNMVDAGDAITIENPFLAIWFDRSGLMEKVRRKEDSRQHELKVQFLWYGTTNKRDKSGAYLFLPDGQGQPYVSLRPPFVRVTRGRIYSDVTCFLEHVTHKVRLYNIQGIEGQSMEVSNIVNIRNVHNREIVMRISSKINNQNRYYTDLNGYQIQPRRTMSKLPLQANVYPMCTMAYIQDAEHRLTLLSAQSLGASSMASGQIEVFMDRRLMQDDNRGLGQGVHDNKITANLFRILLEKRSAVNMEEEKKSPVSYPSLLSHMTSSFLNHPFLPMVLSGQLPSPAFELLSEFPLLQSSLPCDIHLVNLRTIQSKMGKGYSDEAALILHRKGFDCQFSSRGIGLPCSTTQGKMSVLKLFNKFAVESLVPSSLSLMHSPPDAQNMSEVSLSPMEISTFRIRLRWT

[2] = system: Drosophila Schneider (S2) cells; assay: viability of induced S2 cells by Trypan blue exclusion; format: cell-based; settings: 10-20 μM cadmium, until the end of the induction period
Method: Initial experiments were carried out in S2 medium containing 10% bovine serum. Metal concentrations used to induce and time of induction were optimized for dGMII production. […] Cadmium has been reported to be detrimental to the growth of cells. However, at the concentrations used here, the cells continued to grow and maintain greater than 90% viability (as assessed by Trypan blue exclusion) until the end of the induction period. Cells were maintained in the continous presence of cadmium for up to three passages.

dGMII [3] = molecular target: T3, dGMII (Drosophila melanogaster, UniProt Q24451); assay: binding affinity of inhibitors for dGMII; settings: relative to DMNJ; data not shown
T3 sequence (Q24451 1-1108): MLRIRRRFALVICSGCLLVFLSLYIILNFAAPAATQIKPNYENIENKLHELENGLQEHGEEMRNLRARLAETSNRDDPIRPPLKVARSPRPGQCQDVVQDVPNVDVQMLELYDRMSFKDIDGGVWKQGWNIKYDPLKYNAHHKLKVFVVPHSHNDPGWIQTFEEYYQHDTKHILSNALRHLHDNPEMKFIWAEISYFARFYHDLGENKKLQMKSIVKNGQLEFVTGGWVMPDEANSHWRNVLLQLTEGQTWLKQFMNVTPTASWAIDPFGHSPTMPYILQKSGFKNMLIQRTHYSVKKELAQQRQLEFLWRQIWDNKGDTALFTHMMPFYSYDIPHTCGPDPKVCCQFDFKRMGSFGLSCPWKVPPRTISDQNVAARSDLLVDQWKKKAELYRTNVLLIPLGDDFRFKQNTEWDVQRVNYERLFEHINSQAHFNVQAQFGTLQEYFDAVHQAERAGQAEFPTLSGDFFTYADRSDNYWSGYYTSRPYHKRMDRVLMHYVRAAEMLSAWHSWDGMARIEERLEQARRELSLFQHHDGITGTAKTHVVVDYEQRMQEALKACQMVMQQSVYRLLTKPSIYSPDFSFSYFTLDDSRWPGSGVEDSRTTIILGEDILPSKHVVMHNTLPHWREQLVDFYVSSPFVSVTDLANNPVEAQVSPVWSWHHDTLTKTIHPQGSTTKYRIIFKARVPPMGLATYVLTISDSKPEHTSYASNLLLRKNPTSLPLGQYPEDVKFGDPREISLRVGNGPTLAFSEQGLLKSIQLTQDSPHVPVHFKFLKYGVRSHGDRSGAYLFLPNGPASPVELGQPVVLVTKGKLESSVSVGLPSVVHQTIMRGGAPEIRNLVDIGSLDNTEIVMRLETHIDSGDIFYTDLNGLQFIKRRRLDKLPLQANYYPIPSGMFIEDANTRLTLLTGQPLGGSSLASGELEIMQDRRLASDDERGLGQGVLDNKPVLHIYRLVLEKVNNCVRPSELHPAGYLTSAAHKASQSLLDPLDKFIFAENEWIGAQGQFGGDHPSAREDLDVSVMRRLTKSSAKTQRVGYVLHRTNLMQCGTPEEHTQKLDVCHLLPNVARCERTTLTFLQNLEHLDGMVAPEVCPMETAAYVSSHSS

Question: With `[Cu+2]` [copper] as the compound, how does the “inactivation of Drosophila GMII” value (dGMII [1]; Rabouille et al., 1999) read?
Answer: The value was “effectively inactivate”.

Question: What about the IC50 (dGMII [1]; read-out: inhibition of dGMII by copper, IC50) of the same compound?
Answer: The IC50 was 25 µM.

Question: And the “inactivation of mouse GMII” value (mouse GMII)?
Answer: Its value is “effectively inactivate”.

Question: For `[Cd]` [Cadmium], which “cell viability (Trypan blue exclusion)” value [2] is on record?
Answer: The value was “greater than 90%”.

Question: With `O[C@H]1[C@H]2[C@H](O)CCCN2C[C@H]1O` [swainsonine] as the compound, how does the “binding affinity for the enzyme, compared to the substrate-mimic DMNJ” value (dGMII [3]) read?
Answer: The value was 10,000 times higher.

Question: Which “inhibition of dGMII activity” value (dGMII [1]; Rabouille et al., 1999) does the source give for `NC(CO)(CO)CO` [Tris, tris(hydroxymethyl)-aminomethane, reference compound] here?
Answer: The value was “inhibit”.
